The results in this text go back to paper PMC7139549, “TLD1433 Photosensitizer Inhibits Conjunctival Melanoma Cells in Zebrafish Ectopic and Orthotopic Tumour Models” (Cancers, 2020).

Where two headings read alike, the source gives them in different places.

Data set [1] has as its system MEL270 uveal melanoma cell line. In words: SRB cell viability assay, MEL270. It counts as cell-based, Human. The method, then: (§1) TLD1433 is known to generate reactive oxygen species (ROS) with high quantum efficacy in many cancer cell lines. However, there is no report of the in vitro toxicity of this compound in eye melanoma (UM) cell lines. We determined the cell viability of three conjunctival melanoma cell lines (CRMM1, CRMM2 and CM2005.1), and three uveal melanoma cell lines (OMM1, OMM2.5, MEL270) in the presence of TLD1433, both in the dark or under green light irradiation (21 mW/cm^2, 19 J/cm^2, 520 nm, 15 min), and compared this viability to epidermoid carcinoma A431 and cutaneous melanoma A375 cell lines under the same conditions. The protocol used was based on previous work from the Bonnet group, and differed slightly from recommendations from McFarland et al.. […] The effective concentration (EC50) values, i.e., the concentration required to reduce cell viability by 50% compared to untreated wells, were assessed by fitting the dose-response curves with a Hill equation. The phototoxicity index (PI), defined as the ratio of the dark EC50 to the light EC50, was also calculated and represents the amplification of TLD1433 activity with a light trigger. […]
(§2) Figure 2 Cell viability after TLD1433 treatment of eight tumour cell lines (CRMM1, CRMM2, CM2005.1, OMM1, OMM2.5, MEL270, A431, A375). […] The absorbance of Sulforhodamine B in solution was measured at 520 nm. […]
(§3) At day 0, cells were detached using 1mL of trypsin, resuspended in 4 mL of media and transferred to a 15 mL corning falcon tube. Cells were counted using trypan blue and BioRad® TC20™ automated cell counter (Figure 11). Dilutions of 6000 (CRMM1), 6000 (CRMM2), 8000 (CM2005.1), 6000 (OMM1), 6000 (OMM2.5), 6000 (MEL270) 8000 (A431), and 4000 (A375) cells/well were calculated from each cell suspension at a final volume of 6 mL using the following formula: Vc=(Vt×10C)/Lc where Vt = total volume of solution, C = number of cells per well/per 100 μL and Lc = live cells count (cells/mL). […] Next day, the dye was dissolved using Tri-base (0.25%) and absorbance of SRB at 510 nm was recorded from each well using a Tecan plate reader. […]

The subject of data set [2] is CRMM2 conjunctival melanoma cell line. In words: SRB cell viability assay, CRMM2. The class given is cell-based, Human. As for the experimental part: as §1, §2, §3
In data set [3] the test system is wild type zebrafish embryos. In words: Maximum tolerated dose in wild type zebrafish embryos. The following applies: for Maximum Tolerated Dose (MTD): Wild Type Embryos, 4 treatments, 90 min green light 114 J.cm^−2; for concentration not toxic to embryos in the dark: wild type embryos. The class given is in vivo. As for the experimental part: Water administration (WA) of drugs by skin epithelial cell absorption and drinking is commonly used in zebrafish drug experiments. […] In addition, we also tested IV of TLD1433 by direct injection into the dorsal vein, as well behind the eye injections for RO administration. For IV and RO administration, the compound was injected four times into the embryos at 3, 4, 5 and 6dpf, followed by 60 min drug-to-light interval and the same kinetic and irradiation regime as for the WA administration (Figure 5A).
(A) Schedule of TLD1433 treatment in wild type zebrafish. […] (B) WA, (C) IV, (D) RO. (B–D) Images were made of irradiated (light) and non-irradiated (dark) embryos (n = 30) at 6dpf and the percentages of mortality, malformation and fish length were calculated (shown as means ± SD from three independent experiments). Representative images of embryos under dark and light conditions are shown.
At 2.5, 3.5, 4.5, 5.5 dpf, TLD1433 was added to the fish water and maintained for 12 h. […] At 3, 4, 5, 6 dpf, 1nL of TLD1433 was injected via the dorsal vein or the RO site and maintained for 1 h. […] The images of treated and wild type embryos at 6 dpf were taken using a DFC420C camera coupled to a Leica MZ16FA fluorescence microscope. In order to determine the MTD of tumour cell bearing zebrafish, TLD1433 was performed according to the same procedure, delivered by WA, IV and […] administration as described above for the wild type embryos.

The subject of data set [4] is CM2005.1 conjunctival melanoma cell line. In words: SRB cell viability assay, CM2005.1. The class given is cell-based, Human. The method, then: as §1, §2, §3

Take `Cc1ccnc(-c2cc(C)ccn2)c1.Cc1ccnc(-c2cc(C)ccn2)c1.[Cl-].[Cl-].[Ru+2].c1csc(-c2ccc(-c3ccc(-c4nc5c6cccnc6c6ncccc6c5[nH]4)s3)s2)c1` [TLD1433]: the EC50 (usually the midpoint of the concentration-response curve) in data set [1] (MEL270, dark, 24 h treatment, SRB, read-out: EC50, dark) turned out to be 1100 nM; in data set [1] (MEL270, green light 520 nm, 15 min, 21 mW/cm^2, 19 J.cm^−2, DLI 24 h, read-out: EC50,light), 10 nM; in data set [2] (CRMM2, dark, 24 h treatment, SRB, read-out: EC50, dark), 1000 nM; in data set [2] (CRMM2, green light 520 nm, 15 min, 21 mW/cm^2, 19 J.cm^−2, DLI 24 h, read-out: EC50,light), 4.8 nM; in data set [4] (CM2005.1, dark, 24 h treatment, SRB, read-out: EC50, dark), 1100 nM; in data set [4] (CM2005.1, green light 520 nm, 15 min, 21 mW/cm^2, 19 J.cm^−2, DLI 24 h, read-out: EC50,light), 5.8 nM. The “PI (photo index)” value came to 110 in data set [1] (MEL270, ratio of dark and light EC50, 19 J.cm^−2 green light); 210 in data set [2] (CRMM2, ratio of dark and light EC50, 19 J.cm^−2 green light); 190 in data set [4] (CM2005.1, ratio of dark and light EC50, 19 J.cm^−2 green light). Also, the “Maximum Tolerated Dose (MTD)” value was found to be 4.6 mM in data set [3] (Intravenous 1 nL, 60 min DLI); 4.6 mM in data set [3] (Retro-orbital 1 nL, 60 min DLI); 9.2e-06 mM in data set [3] (Water administration, 12 h DLI). Moreover, the “concentration not toxic to embryos in the dark” value in data set [3] (IV 1 nL) came out at 11500 µM; in data set [3] (RO 1 nL) it was 11500 µM; in data set [3] (WA) it was 0.023 µM.
